Results as given in article PMC8228597, “Asperflaloids A and B from Aspergillus flavipes DZ-3, an Endophytic Fungus of Eucommia ulmoides Oliver” (Molecules, 2021).

Assays:
[1] = DPPH radical scavenging test (antioxidant activity); details: for IC50: − means no activity
Method: The DPPH scavenging was assayed according to the reported method. The DPPH radical scavenging test was performed in 96-well microplates. Samples (compounds 1–12) were added to 180 μL (150 μmol/L) DPPH solution in EtOH at 20 μL solutions of different concentrations between 10 and 500 μM. After 30 min of light avoidance, absorbance at 517 nm using a microplate reader (Tecan Trading AG, Männedorf, Switzerland) was measured and the percentage of activity was calculated. All assays were performed in three replicates, and vitamin C was used as a positive control.

[2] = target: α-glucosidase (Saccharomyces cerevisiae, UniProt P53341); test: α-glucosidase inhibitory assay; type: biochemical; details: − means no activity
Sequence of α-glucosidase (P53341 whole entry): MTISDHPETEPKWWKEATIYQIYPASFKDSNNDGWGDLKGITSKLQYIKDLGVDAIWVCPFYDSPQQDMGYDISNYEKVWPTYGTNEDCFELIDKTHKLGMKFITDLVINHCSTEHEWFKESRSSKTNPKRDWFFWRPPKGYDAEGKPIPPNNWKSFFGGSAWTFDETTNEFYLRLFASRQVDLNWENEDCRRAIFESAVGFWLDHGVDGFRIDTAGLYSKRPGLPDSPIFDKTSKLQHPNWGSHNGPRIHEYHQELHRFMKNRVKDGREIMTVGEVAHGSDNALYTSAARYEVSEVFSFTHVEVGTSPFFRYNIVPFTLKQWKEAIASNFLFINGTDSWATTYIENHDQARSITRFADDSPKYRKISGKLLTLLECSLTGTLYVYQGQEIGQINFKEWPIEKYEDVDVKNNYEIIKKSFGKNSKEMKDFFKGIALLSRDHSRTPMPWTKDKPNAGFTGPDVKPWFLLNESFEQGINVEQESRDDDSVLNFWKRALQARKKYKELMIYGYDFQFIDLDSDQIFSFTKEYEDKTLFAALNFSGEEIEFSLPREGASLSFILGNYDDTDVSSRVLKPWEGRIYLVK
Method: The α-glucosidase inhibitory effect was assessed as described in our recently published paper.

With `COC(=O)Cc1ccc(O)c(O)c1` [Compound 8, 3,4-dihydroxyphenylacetic acid methyl ester] the “Antioxidant % Inhibition (500 μM)” value [1] was 92% and the IC50 [1] was 27.1 µM.

In the case of `O=C1O[C@H]([C@@H](O)CO)C(O)=C1O` [Vitamin C, vitamin C, reference compound], the “Antioxidant % Inhibition (500 μM)” value [1] is reported as 96.4% and the IC50 [1] is reported as 26.7 µM.

With `N#CCc1ccc(O)cc1` [Compound 12, 4-hydroxyphenylacetonitrile] the “Antioxidant % Inhibition (500 μM)” value [1] was <50% and the IC50 [1] was > 500 µM.

With `COC(=O)Cc1ccc(O)cc1` [Compound 11, 4-hydroxy phenylacetic acid methyl ester] the “Antioxidant % Inhibition (500 μM)” value [1] was <50% and the IC50 [1] was > 500 µM.

With phenylacetic acid [Compound 9] the IC50 [2] was > 1000 µM, the “Antioxidant % Inhibition (500 μM)” value [1] was <50% and the IC50 [1] was > 500 µM.

In the case of `CC(=O)Nc1ccccc1C(=O)OC[C@@H](O)CO` [Compound 2, Asperflaloid B], the “Antioxidant % Inhibition (500 μM)” value [1] is reported as <50% and the IC50 [1] is reported as > 500 µM.

With `O=C(O)Cc1ccc(O)c(O)c1` [Compound 7, 3,4-dihydroxybenzeneacetic acid] the “Antioxidant % Inhibition (500 μM)” value [1] was 96.6% and the IC50 [1] was 14.4 µM.

In the case of `O=C(O)[C@H](Cc1ccc(O)cc1)n1cnc2ccccc2c1=O` [Compound 1, Asperflaloid A], the “Antioxidant % Inhibition (500 μM)” value [1] is reported as <50% and the IC50 [1] is reported as > 500 µM.

With `C=CC(C)(C)[C@]12C=C(OC)C(=O)N3/C(=C/c4c[nH]cn4)C(=O)N[C@@]31N(OC)c1ccccc12` [Compound 5, oxaline] the “Antioxidant % Inhibition (500 μM)” value [1] was <50% and the IC50 [1] was > 500 µM.

For `O=c1[nH]c(Cc2ccc(O)cc2)nc2ccccc12` [Compound 3, 2-(4-hydroxybenzyl)quinazolin-4(3H)-one], the “Antioxidant % Inhibition (500 μM)” value [1] was <50% and the IC50 [1] was > 500 µM.

For `NC(=O)Cc1ccc(O)cc1` [Compound 10, 4-hydroxybenzeneacetamide], the “Antioxidant % Inhibition (500 μM)” value [1] was 64.9% and the IC50 [1] was 339 µM.

In the case of `O=C(O)c1ccccc1-n1ncnc1Cc1ccc(O)cc1` [Compound 4, penipanoid A], the “Antioxidant % Inhibition (500 μM)” value [1] is reported as <50% and the IC50 [1] is reported as > 500 µM.

With `C/C(=C/C(=O)NCCCC(=O)O)CCO` [Compound 6, fuscoatramide] the “Antioxidant % Inhibition (500 μM)” value [1] was <50% and the IC50 [1] was > 500 µM.
